# Results reported in patent publication US20050256003A1, “Novel herbicides” (priority 2002, published 2005).
# Test system: monocotyledonous and dicotyledonous test plants
# Experiment: Post-emergence herbicidal action
# Format: in vivo
# Design: key: 10=total damage; 0=no action; Ratings of from 10 to 7 (especially from 10 to 8) indicate good to very good herbicidal action
# Conditions: about 18 days, rating 0-10
# Protocol: Post-Emergence Herbicidal Action
# In a greenhouse, monocotyledonous and dicotyledonous test plants are grown in standard soil in plastic pots and at the 4- to 6-leaf stage are sprayed with an aqueous suspension of the test compounds of formula I prepared from a 25% wettable powder (Example F3, b) according to WO 97/34485) or with an emulsion of the test compounds of formula I prepared from a 25% emulsifiable concentrate (Example F1, c) according to WO 97/34485), in a concentration corresponding to 125 g or 250 g of active ingredient/ha (500 litres of water/ha). The test plants are then grown on in a greenhouse under optimum conditions. After a test duration of about 18 days, the test is evaluated in accordance with a scale of nine ratings (10=total damage, 0=no action). Ratings of from 10 to 7 (especially from 10 to 8) indicate good to very good herbicidal action.
compound,measurement,setting,value
Cc1nn(Cc2nc(C(F)(F)F)ccc2C(=O)C2=C(O)C(C)(C)CC(C)(C)C2=O)c(=O)o1 [Compound A7.008],"Post-emergence action, Amaranthus",250 g a.i./ha,5
same,"Post-emergence action, Chenopodium",250 g a.i./ha,9
same,"Post-emergence action, Echinochloa",250 g a.i./ha,7
same,"Post-emergence action, Euphorbia",250 g a.i./ha,7
same,"Post-emergence action, Ipomea",250 g a.i./ha,7
same,"Post-emergence action, Sinapis",250 g a.i./ha,9
same,"Post-emergence action, Stellaria",250 g a.i./ha,9
same,"Post-emergence action, Xanthium",250 g a.i./ha,8
CCOc1nn(Cc2nc(C(F)(F)F)ccc2C(=O)C2=C(O)CCCC2=O)c(=O)n1C1CC1 [Compound A1.049],"Post-emergence action, Amaranthus",250 g a.i./ha,9
same,"Post-emergence action, Chenopodium",250 g a.i./ha,8
same,"Post-emergence action, Echinochloa",250 g a.i./ha,8
same,"Post-emergence action, Euphorbia",250 g a.i./ha,9
same,"Post-emergence action, Ipomea",250 g a.i./ha,9
same,"Post-emergence action, Sinapis",250 g a.i./ha,8
same,"Post-emergence action, Stellaria",250 g a.i./ha,8
same,"Post-emergence action, Xanthium",250 g a.i./ha,9
COc1nn(Cc2nc(C(F)(F)F)ccc2C(=O)C2=C(O)C3CCC(C3)C2=O)c(=O)s1 (stereo not shown) [Compound A6.091],"Post-emergence action, Amaranthus",250 g a.i./ha,8
same,"Post-emergence action, Chenopodium",250 g a.i./ha,9
same,"Post-emergence action, Echinochloa",250 g a.i./ha,9
same,"Post-emergence action, Euphorbia",250 g a.i./ha,8
same,"Post-emergence action, Ipomea",250 g a.i./ha,8
same,"Post-emergence action, Sinapis",250 g a.i./ha,8
same,"Post-emergence action, Stellaria",250 g a.i./ha,9
same,"Post-emergence action, Xanthium",250 g a.i./ha,9
CCOc1nn(Cc2nc(C(F)(F)F)ccc2C(=O)c2cnn(C)c2O)c(=O)n1C [Compound B1.005],"Post-emergence action, Amaranthus",250 g a.i./ha,9
same,"Post-emergence action, Chenopodium",250 g a.i./ha,9
same,"Post-emergence action, Echinochloa",250 g a.i./ha,4
same,"Post-emergence action, Euphorbia",250 g a.i./ha,9
same,"Post-emergence action, Ipomea",250 g a.i./ha,8
same,"Post-emergence action, Sinapis",250 g a.i./ha,9
same,"Post-emergence action, Stellaria",250 g a.i./ha,8
same,"Post-emergence action, Xanthium",250 g a.i./ha,6
Cc1nn(Cc2nc(C(F)(F)F)ccc2C(=O)C2=C(O)C(C)(C)CC(C)(C)C2=O)c(=O)s1 [Compound A7.009],"Post-emergence action, Amaranthus",250 g a.i./ha,4
same,"Post-emergence action, Chenopodium",250 g a.i./ha,9
same,"Post-emergence action, Echinochloa",250 g a.i./ha,7
same,"Post-emergence action, Euphorbia",250 g a.i./ha,7
same,"Post-emergence action, Ipomea",250 g a.i./ha,7
same,"Post-emergence action, Sinapis",250 g a.i./ha,8
same,"Post-emergence action, Stellaria",250 g a.i./ha,7
same,"Post-emergence action, Xanthium",250 g a.i./ha,7
COc1nn(Cc2nc(C(F)(F)F)ccc2C(=O)C2=C(O)C(C)(C)C(=O)C(C)(C)C2=O)c(=O)s1 [Compound A8.095],"Post-emergence action, Amaranthus",250 g a.i./ha,9
same,"Post-emergence action, Chenopodium",250 g a.i./ha,5
same,"Post-emergence action, Echinochloa",250 g a.i./ha,9
same,"Post-emergence action, Euphorbia",250 g a.i./ha,0
same,"Post-emergence action, Ipomea",250 g a.i./ha,9
same,"Post-emergence action, Sinapis",250 g a.i./ha,8
same,"Post-emergence action, Stellaria",250 g a.i./ha,7
same,"Post-emergence action, Xanthium",250 g a.i./ha,8
Cc1nn(CCOCc2nc(C(F)(F)F)ccc2C(=O)C2=C(O)C3CCC(C3)C2=O)c(=O)s1 (stereo not shown) [Compound A6.082],"Post-emergence action, Amaranthus",250 g a.i./ha,8
same,"Post-emergence action, Chenopodium",250 g a.i./ha,9
same,"Post-emergence action, Echinochloa",250 g a.i./ha,7
same,"Post-emergence action, Euphorbia",250 g a.i./ha,7
same,"Post-emergence action, Ipomea",250 g a.i./ha,8
same,"Post-emergence action, Sinapis",250 g a.i./ha,5
same,"Post-emergence action, Stellaria",250 g a.i./ha,9
same,"Post-emergence action, Xanthium",250 g a.i./ha,7
CSC(=O)n1c(C)cc(=O)n1Cc1nc(C(F)(F)F)ccc1C(=O)c1cnn(C)c1O [Compound B1.062],"Post-emergence action, Amaranthus",250 g a.i./ha,9
same,"Post-emergence action, Chenopodium",250 g a.i./ha,9
same,"Post-emergence action, Echinochloa",250 g a.i./ha,4
same,"Post-emergence action, Euphorbia",250 g a.i./ha,9
same,"Post-emergence action, Ipomea",250 g a.i./ha,7
same,"Post-emergence action, Sinapis",250 g a.i./ha,8
same,"Post-emergence action, Stellaria",250 g a.i./ha,8
same,"Post-emergence action, Xanthium",250 g a.i./ha,6
CCOc1nn(Cc2nc(C(F)(F)F)ccc2C(=O)C2=C(O)CCCC2=O)c(=O)n1C [Compound A1.043],"Post-emergence action, Amaranthus",250 g a.i./ha,9
same,"Post-emergence action, Chenopodium",250 g a.i./ha,9
same,"Post-emergence action, Echinochloa",250 g a.i./ha,7
same,"Post-emergence action, Euphorbia",250 g a.i./ha,7
same,"Post-emergence action, Ipomea",250 g a.i./ha,9
same,"Post-emergence action, Sinapis",250 g a.i./ha,6
same,"Post-emergence action, Stellaria",250 g a.i./ha,9
same,"Post-emergence action, Xanthium",250 g a.i./ha,9
CCN1C(=O)N(Cc2nc(C(F)(F)F)ccc2C(=O)C2=C(O)CCCC2=O)C(=O)C1C (racemic) [Compound A1.181],"Post-emergence action, Amaranthus",250 g a.i./ha,9
same,"Post-emergence action, Chenopodium",250 g a.i./ha,8
same,"Post-emergence action, Echinochloa",250 g a.i./ha,4
same,"Post-emergence action, Euphorbia",250 g a.i./ha,8
same,"Post-emergence action, Ipomea",250 g a.i./ha,8
same,"Post-emergence action, Sinapis",250 g a.i./ha,5
same,"Post-emergence action, Stellaria",250 g a.i./ha,7
same,"Post-emergence action, Xanthium",250 g a.i./ha,8
CCN1C(=O)N(Cc2nc(C(F)(F)F)ccc2C(=O)C2=C(O)C(C)(C)C(=O)C(C)(C)C2=O)C(=O)C1C (stereo not shown) [Compound A8.174],"Post-emergence action, Amaranthus",250 g a.i./ha,8
same,"Post-emergence action, Chenopodium",250 g a.i./ha,9
same,"Post-emergence action, Echinochloa",250 g a.i./ha,0
same,"Post-emergence action, Euphorbia",250 g a.i./ha,7
same,"Post-emergence action, Ipomea",250 g a.i./ha,8
same,"Post-emergence action, Sinapis",250 g a.i./ha,7
same,"Post-emergence action, Stellaria",250 g a.i./ha,7
same,"Post-emergence action, Xanthium",250 g a.i./ha,7
Cc1nn(Cc2nc(C(F)(F)F)ccc2C(=O)C2=C(O)C3CCC(C3)C2=O)c(=O)o1 (stereo not shown) [Compound A6.097],"Post-emergence action, Amaranthus",250 g a.i./ha,7
same,"Post-emergence action, Chenopodium",250 g a.i./ha,9
same,"Post-emergence action, Echinochloa",250 g a.i./ha,7
same,"Post-emergence action, Euphorbia",250 g a.i./ha,7
same,"Post-emergence action, Ipomea",250 g a.i./ha,7
same,"Post-emergence action, Sinapis",250 g a.i./ha,8
same,"Post-emergence action, Stellaria",250 g a.i./ha,9
same,"Post-emergence action, Xanthium",250 g a.i./ha,7
CCOc1nn(Cc2nc(C(F)(F)F)ccc2C(=O)c2cnn(C)c2O)c(=O)n1C1CC1 [Compound B1.056],"Post-emergence action, Amaranthus",250 g a.i./ha,9
same,"Post-emergence action, Chenopodium",250 g a.i./ha,8
same,"Post-emergence action, Echinochloa",250 g a.i./ha,9
same,"Post-emergence action, Euphorbia",250 g a.i./ha,9
same,"Post-emergence action, Ipomea",250 g a.i./ha,10
same,"Post-emergence action, Sinapis",250 g a.i./ha,8
same,"Post-emergence action, Stellaria",250 g a.i./ha,7
same,"Post-emergence action, Xanthium",250 g a.i./ha,0
"Cn1c(C(F)(F)F)nn(Cc2nc(C(F)(F)Cl)ccc2C(=O)C2=C(O)CCCC2=O)c1=O [Compound A1.001, 2-[6-(Chloro-difluoro-methyl)-3-(2-hydroxy-6-oxo-cyclohex-1-ene-carbonyl)-pyridin-2-ylmethyl]-4-methyl-5-trifluoromethyl-2.4-dihydro-[1.2.4]triazol-3-one]","Post-emergence action, Amaranthus",125 g a.i./ha,8
same,"Post-emergence action, Chenopodium",125 g a.i./ha,9
same,"Post-emergence action, Echinochloa",125 g a.i./ha,4
same,"Post-emergence action, Euphorbia",125 g a.i./ha,4
same,"Post-emergence action, Ipomea",125 g a.i./ha,8
same,"Post-emergence action, Sinapis",125 g a.i./ha,8
same,"Post-emergence action, Stellaria",125 g a.i./ha,8
same,"Post-emergence action, Xanthium",125 g a.i./ha,8
O=C1CCCC(O)=C1C(=O)c1ccc(C(F)(F)F)nc1Cn1sc(Cl)cc1=O [Compound A1.115],"Post-emergence action, Amaranthus",250 g a.i./ha,9
same,"Post-emergence action, Chenopodium",250 g a.i./ha,9
same,"Post-emergence action, Echinochloa",250 g a.i./ha,7
same,"Post-emergence action, Euphorbia",250 g a.i./ha,8
same,"Post-emergence action, Ipomea",250 g a.i./ha,7
same,"Post-emergence action, Sinapis",250 g a.i./ha,3
same,"Post-emergence action, Stellaria",250 g a.i./ha,9
same,"Post-emergence action, Xanthium",250 g a.i./ha,9
Cn1c(C(F)(F)F)nn(Cc2nc(C(F)(F)F)ccc2C(=O)C2=C(O)CCCC2=O)c1=O [Compound A1.007],"Post-emergence action, Amaranthus",250 g a.i./ha,9
same,"Post-emergence action, Chenopodium",250 g a.i./ha,10
same,"Post-emergence action, Echinochloa",250 g a.i./ha,8
same,"Post-emergence action, Euphorbia",250 g a.i./ha,4
same,"Post-emergence action, Ipomea",250 g a.i./ha,9
same,"Post-emergence action, Sinapis",250 g a.i./ha,8
same,"Post-emergence action, Stellaria",250 g a.i./ha,7
same,"Post-emergence action, Xanthium",250 g a.i./ha,9
COc1nn(Cc2nc(C(F)(F)F)ccc2C(=O)c2cnn(C)c2O)c(=O)n1C1CC1 [Compound B1.039],"Post-emergence action, Amaranthus",250 g a.i./ha,6
same,"Post-emergence action, Chenopodium",250 g a.i./ha,8
same,"Post-emergence action, Echinochloa",250 g a.i./ha,9
same,"Post-emergence action, Euphorbia",250 g a.i./ha,9
same,"Post-emergence action, Ipomea",250 g a.i./ha,8
same,"Post-emergence action, Sinapis",250 g a.i./ha,9
same,"Post-emergence action, Stellaria",250 g a.i./ha,9
same,"Post-emergence action, Xanthium",250 g a.i./ha,8
CCOc1nn(Cc2nc(C(F)(F)F)ccc2C(=O)C2=C(O)CCCC2=O)c(=O)n1C [Compound A1.037],"Post-emergence action, Amaranthus",250 g a.i./ha,9
same,"Post-emergence action, Chenopodium",250 g a.i./ha,9
same,"Post-emergence action, Echinochloa",250 g a.i./ha,4
same,"Post-emergence action, Euphorbia",250 g a.i./ha,8
same,"Post-emergence action, Ipomea",250 g a.i./ha,9
same,"Post-emergence action, Sinapis",250 g a.i./ha,8
same,"Post-emergence action, Stellaria",250 g a.i./ha,8
same,"Post-emergence action, Xanthium",250 g a.i./ha,9
COc1nn(Cc2nc(C(F)(F)F)ccc2C(=O)C2=C(O)CCCC2=O)c(=O)n1C1CC1 [Compound A1.031],"Post-emergence action, Amaranthus",250 g a.i./ha,9
same,"Post-emergence action, Chenopodium",250 g a.i./ha,10
same,"Post-emergence action, Echinochloa",250 g a.i./ha,7
same,"Post-emergence action, Euphorbia",250 g a.i./ha,8
same,"Post-emergence action, Ipomea",250 g a.i./ha,9
same,"Post-emergence action, Sinapis",250 g a.i./ha,8
same,"Post-emergence action, Stellaria",250 g a.i./ha,9
same,"Post-emergence action, Xanthium",250 g a.i./ha,9
Cn1ncc(C(=O)c2ccc(C(F)(F)F)nc2Cn2c(=O)oc3cc(Cl)ccc32)c1O [Compound B1.194],"Post-emergence action, Amaranthus",250 g a.i./ha,9
same,"Post-emergence action, Chenopodium",250 g a.i./ha,9
same,"Post-emergence action, Echinochloa",250 g a.i./ha,9
same,"Post-emergence action, Euphorbia",250 g a.i./ha,9
same,"Post-emergence action, Ipomea",250 g a.i./ha,7
same,"Post-emergence action, Sinapis",250 g a.i./ha,7
same,"Post-emergence action, Stellaria",250 g a.i./ha,8
same,"Post-emergence action, Xanthium",250 g a.i./ha,9
